Measured values taken from PMC10722499, “Consumption of Roasted Coffee Leads to Conjugated Metabolites of Atractyligenin in Human Plasma” (Journal of Agricultural and Food Chemistry, 2023).
Like-named read-outs stand apart in the source and are kept apart here.

Legend:
[1] = Human coffee intervention study: plasma concentrations after roasted coffee brew by UPLC-MS/MS; format: in vivo; conditions: for concentration at 1 h / concentration at 4 h / concentration at 10 h / concentration at 0 h: human, plasma, 200 mL
Experimental: The study included ten volunteers (5 females, 5 males) (age: 28.3 ± 2.3 years; BMI: 21.89 ± 2.22 kg/m^2). The intervention study took place from November 5, 2021, to February 17, 2022, in the core facility human studies of the ZIEL Institute for Food and Health of the Technical University of Munich. The study was performed in agreement with the Declaration of Helsinki, and all participants gave written informed consent. The study was approved by the Ethics Committee of the Technical University of Munich (5798/13 S-SR) and registered in the German Register of Clinical Studies (DRKS00005083).
The study participants underwent a dietary protocol that excluded all forms of coffee consumption. Additionally, chocolate, black/green/white, mate tea, cola, energy drinks, and beauty products containing caffeine (e.g., shampoos, creams) were prohibited 1 week before the test day. Furthermore, the study participants received a standardized meal the evening before the test day. The meal was composed of pasta, margarine, and salt, and the amount of energy was calculated based on the participant’s basal energy demand. On the morning of the test day, the participants were in a fastened state and received water (control samples) or coffee brew (coffee intervention) as breakfast. Blood was sampled before coffee intake (0 h) and at defined time points (1, 4, and 10 h) after coffee intake. 6 h after the coffee intake, the participants received lunch, the same standardized meal as the previous dinner. The administered coffee was prepared from a coffee capsule (Nespresso, ROMA) with 100 mL water. The administered volume of the coffee brew was 200 mL. Based on the coffee powder per capsule ([…]), the concentrations of 2 (2.8 μmol/g) and 3 (1.1 μmol/g), respectively,[10] and an estimated extraction rate of 100%, the total ingested amounts were 33.6 μmol (2) and 13.2 μmol (3).
In an Eppendorf tube (1.5 mL), aliquots (50 μL each) of the calibration standard, sample, or QC, respectively, were mixed with the IS solution (1000 nM in ethanol, 50 μL) and acetonitrile/ethanol (9 + 1, v + v, 50 μL) was added. After vortexing, suspensions were cleared by centrifugation (12,000 rpm, 4 °C, 10 min), and the supernatant (∼100 μL) was transferred to an HPLC vial with 200 μL insert for analysis (5 μL injection).
The UPLC–MS/MS system consisted of a Shimadzu Nexera X2 UPLC system (Shimadzu, Duisburg, Germany) hyphenated to a QTrap 5500 MS/MS system (Sciex, Darmstadt, Germany) operating in negative electrospray (ESI^–) mode with the following ion source parameters: ion spray voltage: −4500 V; source temperature: 500 °C; nebulizer gas: 55 psi; heater gas: 65 psi; and curtain gas: 35 psi. The MS/MS parameters, including the collision cell entrance potential (CEP), declustering potential (DP), collision energy (CE), and cell exit potential (CXP), were tuned for each compound and mass transition and are summarized in Supporting Table S3. The dwell time for each compound was 30 ms, and the total cycle time was 0.75 s. Chromatographic separation was achieved on a C18 column (Kinetex C18, 100 mm × 2.1 mm, 1.7 μm, Phenomenex, Aschaffenburg, Germany) at a flow rate of 500 μL/min flow rate. Eluent A was 0.1% formic acid in water, and eluent B was 0.1% formic acid in acetonitrile. B was kept at 3% (1 min), increased to 25% (in 3 min), 90% (in 2 min, 1 min isocratic), and 3% (0.5 min, 2.5 min isocratic). The total time of the analysis was 10 min. The column effluent was introduced from the waste to the MS/MS system between 3 and 7 min.
We applied this method to human plasma samples from a coffee intervention study to investigate the appearance of coffee compounds 1–3 and metabolites M1–M3. Ten participants underwent a washout period (7 days) and then consumed one dose of […]. Blood samples were taken at baseline (0 h) and 1, 4, and 10 h after the intervention. […]

[2] = design: method as in PMID 36442242; conditions: coffee drinkers' urine, four of six samples, qualitative; cited from earlier work

**Q.** For `CC1C(=O)C23CCC4C(C(=O)O)CC(OC5OC(C(=O)O)C(O)C(O)C5O)CC4(C)C2CCC1C3` [M3, 2β-hydroxy-15-oxoatractylan-4α-carboxylic acid-2-O-β-D-glucuronide], which “plasma level at baseline” value ([1]; 0 h, before coffee intake, human plasma) is on record?
**A.** below the LLOQ

**Q.** And the “plasma concentration in samples from two individuals” value ([1]; 10 h after coffee, comparatively high individual values)?
**A.** 180.0 nM

**Q.** What about the “samples above the LLOQ” value ([1]; 10 h after coffee, n = 10) of the same compound?
**A.** 90%

**Q.** And the concentration at 1 h ([1]; both sexes, oral, 1 h after coffee brew (200 mL), human plasma, values above LLOQ, read-out: plasma concentration, mean ± SD)?
**A.** 1.7 nM

**Q.** And the concentration at 4 h ([1]; both sexes, oral, 4 h after coffee brew (200 mL), human plasma, values above LLOQ, read-out: plasma concentration, mean ± SD)?
**A.** 1.3 ± 1.1 nM

**Q.** And the concentration at 10 h ([1]; both sexes, oral, 10 h after coffee brew (200 mL), human plasma, values above LLOQ, read-out: plasma concentration, mean ± SD)?
**A.** 55 ± 57.7 nM

**Q.** What about the Cmax ([1]; both sexes, oral, human plasma after coffee brew (200 mL), n = 10, mean ± SD, read-out: estimated cmax in plasma) of the same compound?
**A.** 55 ± 57.7 nM

**Q.** What about the “time of estimated cmax” value ([1]; human plasma after coffee brew (200 mL), sampling only at 0, 1, 4, 10 h) of the same compound?
**A.** 10 h

**Q.** And the “study participants in whom the conjugate appeared within 10 h after coffee” value ([1]; human plasma, n = 10)?
**A.** 90%

**Q.** What about the concentration at 10 h ([1]; oral, 10 h after coffee, comparatively high individual values, read-out: plasma concentration in samples from two individuals) of the same compound?
**A.** 111 nM

**Q.** And the concentration at 10 h ([1]; oral, participant cbdu, 10 h after coffee, read-out: plasma concentration, individual)?
**A.** 11.6 nM

**Q.** What about the concentration at 0 h ([1]; oral, participant eogo, 0 h, b = below LLOQ, read-out: plasma concentration, individual) of the same compound?
**A.** 0.4 nM

**Q.** What about the concentration at 1 h ([1]; oral, participant eogo, 1 h after coffee, b = below LLOQ, read-out: plasma concentration, individual) of the same compound?
**A.** 0.3 nM

**Q.** What about the concentration at 4 h ([1]; oral, participant eogo, 4 h after coffee, b = below LLOQ, read-out: plasma concentration, individual) of the same compound?
**A.** 0.1 nM

**Q.** What about the concentration at 10 h ([1]; oral, participant eogo, 10 h after coffee, b = below LLOQ, read-out: plasma concentration, individual) of the same compound?
**A.** 40.8 nM

**Q.** What about the concentration at 4 h ([1]; oral, participant ggot, 4 h after coffee, b = below LLOQ, read-out: plasma concentration, individual) of the same compound?
**A.** 2.9 nM

**Q.** And the concentration at 10 h ([1]; oral, participant ggot, 10 h after coffee, b = below LLOQ, read-out: plasma concentration, individual)?
**A.** 180 nM

**Q.** And the concentration at 10 h ([1]; oral, participant imhz, 10 h after coffee, read-out: plasma concentration, individual)?
**A.** 9.3 nM

**Q.** What about the concentration at 10 h ([1]; oral, participant mgjj, 10 h after coffee, read-out: plasma concentration, individual) of the same compound?
**A.** 24.3 nM

**Q.** What about the concentration at 4 h ([1]; oral, participant rrmk, 4 h after coffee, b = below LLOQ, read-out: plasma concentration, individual) of the same compound?
**A.** 0.7 nM

**Q.** And the concentration at 10 h ([1]; oral, participant rrmk, 10 h after coffee, read-out: plasma concentration, individual)?
**A.** 50.6 nM

**Q.** What about the concentration at 4 h ([1]; oral, participant wbqj, 4 h after coffee, b = below LLOQ, read-out: plasma concentration, individual) of the same compound?
**A.** 0.9 nM

**Q.** What about the concentration at 10 h ([1]; oral, participant wbqj, 10 h after coffee, b = below LLOQ, read-out: plasma concentration, individual) of the same compound?
**A.** 64.1 nM

**Q.** What about the concentration at 0 h ([1]; oral, participant wbvs, 0 h, b = below LLOQ, read-out: plasma concentration, individual) of the same compound?
**A.** 0.9 nM

**Q.** And the concentration at 1 h ([1]; oral, participant wbvs, 1 h after coffee, read-out: plasma concentration, individual)?
**A.** 1.7 nM

**Q.** What about the concentration at 4 h ([1]; oral, participant wbvs, 4 h after coffee, read-out: plasma concentration, individual) of the same compound?
**A.** 1.9 nM

**Q.** What about the concentration at 10 h ([1]; oral, participant wbvs, 10 h after coffee, read-out: plasma concentration, individual) of the same compound?
**A.** 111 nM

**Q.** What about the concentration at 10 h ([1]; oral, participant xrwz, 10 h after coffee, b = below LLOQ, read-out: plasma concentration, individual) of the same compound?
**A.** 4.1 nM

**Q.** And the “urine samples in which detected” value [2]?
**A.** 67%
